“And” between values parts separate entries of the source, which are not always exact repeats. Identical values can stand only once. Inconclusive results and toxic doses are left out. No stated cut-off is given here; in the data, active means T/C of 150% or more; inactive means T/C below 125%.
Tested on: L1210 leukemia ip in BDF1 mice, survival T/C
Assay: NCI In Vivo Anticancer Drug Screen. Data for tumor model L1210 Leukemia (intraperitoneal) in B6D2F1 (BDF1) mice
Settings: endpoint: mean survival time, higher = longer survival
How it was run: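 Mice bearing the transplanted tumor received compound or vehicle. Survival of the treated group was divided by that of the vehicle-treated control group to give the ratio.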

[1] = dose: 100.0 mg/kg/injection, schedule: Q01DX001 (ip), vehicle: Klucel (hydroxypropylcellulose) (HPC)
[2] = dose: 100.0 mg/kg/injection, schedule: Q01DX009 (ip), vehicle: saline with Tween-80
[3] = dose: 100.0 mg/kg/injection, schedule: Q04DX003 (ip), vehicle: saline with Tween-80
[4] = dose: 200.0 mg/kg/injection, schedule: Q01DX001 (ip), vehicle: Klucel (hydroxypropylcellulose) (HPC)
[5] = dose: 200.0 mg/kg/injection, schedule: Q01DX009 (ip), vehicle: saline with Tween-80
[6] = dose: 200.0 mg/kg/injection, schedule: Q04DX003 (ip), vehicle: saline with Tween-80
[7] = dose: 400.0 mg/kg/injection, schedule: Q01DX001 (ip), vehicle: Klucel (hydroxypropylcellulose) (HPC)
[8] = dose: 400.0 mg/kg/injection, schedule: Q01DX009 (ip), vehicle: saline with Tween-80
[9] = dose: 400.0 mg/kg/injection, schedule: Q04DX003 (ip), vehicle: saline with Tween-80
[10] = dose: 100.0 mg/kg/injection, schedule: Q01DX001 (ip), vehicle: other
[11] = dose: 200.0 mg/kg/injection, schedule: Q01DX001 (ip), vehicle: other
[12] = dose: 100.0 mg/kg/injection, schedule: Q04DX002 (ip), vehicle: saline
[13] = dose: 200.0 mg/kg/injection, schedule: Q04DX002 (ip), vehicle: saline
[14] = dose: 400.0 mg/kg/injection, schedule: Q04DX002 (ip), vehicle: saline
[15] = dose: 50.0 mg/kg/injection, schedule: Q01DX009 (ip), vehicle: saline with Tween-80
[16] = dose: 100.0 mg/kg/injection, schedule: Q01DX001 (ip), vehicle: saline
[17] = dose: 200.0 mg/kg/injection, schedule: Q01DX001 (ip), vehicle: saline
[18] = dose: 400.0 mg/kg/injection, schedule: Q01DX001 (ip), vehicle: saline
[19] = dose: 50.0 mg/kg/injection, schedule: Q04DX003 (ip), vehicle: Klucel (hydroxypropylcellulose) (HPC)
[20] = dose: 100.0 mg/kg/injection, schedule: Q04DX003 (ip), vehicle: Klucel (hydroxypropylcellulose) (HPC)
[21] = dose: 200.0 mg/kg/injection, schedule: Q04DX003 (ip), vehicle: Klucel (hydroxypropylcellulose) (HPC)
[22] = dose: 100.0 mg/kg/injection, schedule: Q04DX002 (ip), vehicle: saline with Tween-80
[23] = dose: 400.0 mg/kg/injection, schedule: Q04DX002 (ip), vehicle: saline with Tween-80

Measured: T/C

COC(OC)c1[nH]c(=S)[nH]c(=O)c1Cc1cccc2ccccc12
inactive: [1] 105 % of control | [2] 96 % of control | [3] 100 % of control | [4] 105 % of control | [5] 89 % of control | [6] 100 % of control | [7] 96 % of control | [8] 93 % of control | [9] 102 % of control

C1CCCC2(CC1)CCCCC2
inactive: dose: 75.0 mg/kg/injection, schedule: Q01DX001 (ip), vehicle: saline with Tween-80 94 % of control | dose: 150.0 mg/kg/injection, schedule: Q01DX001 (ip), vehicle: saline with Tween-80 90 % of control | dose: 300.0 mg/kg/injection, schedule: Q01DX001 (ip), vehicle: saline with Tween-80 95 % of control

CC(C)CCOC(=O)N(C)c1ccccc1
inactive: dose: 75.0 mg/kg/injection, schedule: Q04DX002 (ip), vehicle: Klucel (hydroxypropylcellulose) (HPC) 101 % of control | dose: 150.0 mg/kg/injection, schedule: Q04DX002 (ip), vehicle: Klucel (hydroxypropylcellulose) (HPC) 105 % of control | dose: 300.0 mg/kg/injection, schedule: Q04DX002 (ip), vehicle: Klucel (hydroxypropylcellulose) (HPC) 105 % of control

Cc1ccc(S(=O)(=O)NC(CC(C)C)C(=O)O)cc1 (stereo not given)
inactive: [10] 101 % of control | [11] 96 % of control | dose: 400.0 mg/kg/injection, schedule: Q01DX001 (ip), vehicle: other 98 % of control

Cc1cc(=O)[nH]c(/N=C(\N)Nc2ccc(Cl)cc2)n1
inactive: [12] 93 % of control | [13] 99 % of control | [14] 96 % of control

CC(C)CCNc1ncnc2c1cnn2C
inactive: dose: 25.0 mg/kg/injection, schedule: Q04DX003 (ip), vehicle: saline 97 % of control | dose: 50.0 mg/kg/injection, schedule: Q04DX003 (ip), vehicle: saline 97 % of control | dose: 100.0 mg/kg/injection, schedule: Q04DX003 (ip), vehicle: saline 102 % of control

NNC(=O)c1ccccc1O
inactive: dose: 50.0 mg/kg/injection, schedule: Q01DX001 (ip), vehicle: other 105 % of control | [15] 90 % of control | [10] 100 % of control | [2] 97 % of control | [11] 97 % of control | [5] 102 % of control

O=[N+]([O-])c1ccc(OCc2ccccc2)c(Cl)c1
inactive: dose: 25.0 mg/kg/injection, schedule: Q04DX003 (ip), vehicle: saline with Tween-80 102 % of control | dose: 50.0 mg/kg/injection, schedule: Q04DX003 (ip), vehicle: saline with Tween-80 96 % of control | [3] 98 % of control and 105 % of control

Cc1cc(=O)c2cc(Cl)cc(Br)c2[nH]1
inactive: [16] 94 % of control | [17] 96 % of control | [18] 103 % of control

CN(CCCCC(=O)NC(CCC(=O)O)C(=O)O)Cc1cnc2nc(N)nc(N)c2n1 (stereo not given)
inactive: dose: 20.0 mg/kg/injection, schedule: Q01DX009 (ip), vehicle: saline 94 % of control | dose: 40.0 mg/kg/injection, schedule: Q01DX009 (ip), vehicle: saline 112 % of control | dose: 80.0 mg/kg/injection, schedule: Q01DX009 (ip), vehicle: saline 94 % of control

CSc1nc2nc[nH]c(=O)c2cc1C#N
inactive: [1] 91 % of control | [4] 96 % of control | [7] 106 % of control

CCCCC(CC)COC(C)=O (stereo not given)
inactive: [2] 94 % of control | [3] 98 % of control | [5] 102 % of control | [6] 93 % of control | [8] 91 % of control | [9] 92 % of control

NC(=O)CC(NC(=O)CCl)C(=O)O (stereo not given)
inactive: [2] 104 % of control | [5] 87 % of control | [8] 86 % of control

COc1ccc(C2C3CCC(C3)C2N)cc1 (stereo not given)
inactive: dose: 5.0 mg/kg/injection, schedule: Q04DX003 (ip), vehicle: saline 100 % of control | dose: 10.0 mg/kg/injection, schedule: Q01DX009 (ip), vehicle: saline with Tween-80 93 % of control | dose: 10.0 mg/kg/injection, schedule: Q04DX003 (ip), vehicle: saline 100 % of control and 97 % of control | dose: 20.0 mg/kg/injection, schedule: Q01DX009 (ip), vehicle: saline with Tween-80 91 % of control | dose: 20.0 mg/kg/injection, schedule: Q04DX003 (ip), vehicle: saline 97 % of control | dose: 25.0 mg/kg/injection, schedule: Q01DX009 (ip), vehicle: saline with Tween-80 90 % of control | dose: 40.0 mg/kg/injection, schedule: Q04DX003 (ip), vehicle: saline 96 % of control | [15] 95 % of control | [2] 88 % of control | [3] 100 % of control

C(#CP(c1ccccc1)c1ccccc1)P(c1ccccc1)c1ccccc1
inactive: [19] 98 % of control | [20] 101 % of control | [21] 102 % of control

CC1(C)OC2COC(c3[nH]nc(C(N)=O)c3I)C2O1 (stereo not given)
inactive: dose: 100.0 mg/kg/injection, schedule: Q01DX005 (ip), vehicle: saline 93 % of control | dose: 200.0 mg/kg/injection, schedule: Q01DX005 (ip), vehicle: saline 95 % of control

CS(=O)(=O)OC1C(OCc2ccccc2)OC(COCc2ccccc2)C(OC2OC(COCc3ccccc3)C(OCc3ccccc3)C(OCc3ccccc3)C2OCc2ccccc2)C1OCc1ccccc1 (stereo not given)
inactive: [19] 93 % of control | [20] 93 % of control | [21] 97 % of control | dose: 400.0 mg/kg/injection, schedule: Q04DX003 (ip), vehicle: Klucel (hydroxypropylcellulose) (HPC) 93 % of control

Cc1ccc(S(C)=O)c(C)c1 (stereo not given)
inactive: dose: 100.0 mg/kg/injection, schedule: Q01DX009 (ip), vehicle: saline 97 % of control | dose: 200.0 mg/kg/injection, schedule: Q01DX009 (ip), vehicle: saline 96 % of control

C/C(CCCC(C)(C)C(=O)O)=N/Nc1ccc([N+](=O)[O-])cc1[N+](=O)[O-]
inactive: dose: 75.0 mg/kg/injection, schedule: Q01DX001 (ip), vehicle: other 93 % of control

O=C(CCCC(=O)NNC(=O)Nc1ccc(Br)cc1)NNC(=O)Nc1ccc(Br)cc1
inactive: dose: 50.0 mg/kg/injection, schedule: Q01DX001 (ip), vehicle: saline 93 % of control | [16] 100 % of control | [17] 96 % of control | [18] 96 % of control

O=[N+]([O-])c1ccc(O)c(C=NCCCN=Cc2cc([N+](=O)[O-])ccc2O)c1
inactive: [16] 90 % of control | [17] 102 % of control | [18] 96 % of control

O=C(Nc1ccc(Cl)cc1[N+](=O)[O-])Nc1ccccc1C(F)(F)F
inactive: dose: 100.0 mg/kg/injection, schedule: Q01DX001 (ip), vehicle: saline with Tween-80 93 % of control | [2] 94 % of control and 90 % of control | [22] 95 % of control and 96 % of control | [3] 97 % of control | dose: 200.0 mg/kg/injection, schedule: Q01DX001 (ip), vehicle: saline with Tween-80 90 % of control | [5] 100 % of control and 92 % of control | dose: 200.0 mg/kg/injection, schedule: Q04DX002 (ip), vehicle: saline with Tween-80 93 % of control and 98 % of control | [6] 88 % of control | dose: 400.0 mg/kg/injection, schedule: Q01DX001 (ip), vehicle: saline with Tween-80 101 % of control | [8] 94 % of control and 87 % of control | [23] 91 % of control | [9] 88 % of control

C#CC1(NC(=S)Nc2cccc(OC)c2)CCCCC1
inactive: dose: 100.0 mg/kg/injection, schedule: Q04DX002 (ip), vehicle: Klucel (hydroxypropylcellulose) (HPC) 94 % of control | dose: 200.0 mg/kg/injection, schedule: Q04DX002 (ip), vehicle: Klucel (hydroxypropylcellulose) (HPC) 109 % of control | dose: 400.0 mg/kg/injection, schedule: Q04DX002 (ip), vehicle: Klucel (hydroxypropylcellulose) (HPC) 96 % of control

CC(C)(C)N1CC(C(O)c2ccccc2)C1c1ccccc1 (stereo not given)
inactive: [20] 98 % of control | [21] 95 % of control

CC(=O)OCC(OC(C)=O)C(OC(C)=O)C(Cn1c(=O)cc(C)c2ccc(C)c(C)c21)OC(C)=O (stereo not given)
inactive: [16] 88 % of control | [17] 93 % of control | [18] 88 % of control

CN(C)P1(=O)N(c2ccc(Cl)cc2)P(=O)(N(C)C)N1c1ccc(Cl)cc1 (stereo not given)
inactive: [12] 96 % of control | [13] 100 % of control | [14] 93 % of control

N#CCCN(CCCN1CCOCC1)C(=S)Nc1cccc(C(F)(F)F)c1
inactive: [22] 92 % of control | [23] 100 % of control

— PubChem BioAssay AID248 (DTP/NCI, 2004)
